Assay results from PubChem BioAssay (NCI).
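Where inhibition never reached the appropriate level, the endpoint shown equals the highest concentration tested. Otherwise, values were interpolated linearly from a five-concentration, 48-hour dose response in 96-well plates. TGI: total growth inhibition.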 Where a SMILES comes first, the peptide text is derived from it. The star is where a group is joined. Boc = CC(C)(C)OC(=O)*

Tests used:
Experiment in all cases: DTP human tumour cell line panel, 48 h
[1] = test system: LOX IMVI melanoma
[2] = test system: RPMI-8226 leukemia
[3] = test system: TK-10 renal
[4] = test system: SF-539 CNS
[5] = test system: SW-620 colon
[6] = test system: UACC-257 melanoma
[7] = test system: OVCAR-5 ovarian
[8] = test system: RXF 393 renal
[9] = test system: UACC-62 melanoma
[10] = test system: NCI-H226 lung
[11] = test system: NCI-H522 lung
[12] = test system: M14 melanoma
[13] = test system: SR leukemia

SMILES | TGI [1] | TGI [2] | TGI [3] | TGI [4] | TGI [5] | TGI [6] | TGI [7] | TGI [8] | TGI [9] | TGI [10] | TGI [11] | TGI [12] | TGI [13]
O=C1NC(=O)C2C(=O)NC(=O)C1C2c1c(Cl)cccc1Cl (stereo not drawn) | > 57.4 µM | > 67.2 µM | > 100 µM | > 100 µM | > 47.1 µM | > 100 µM | > 100 µM | 98.1 µM | > 100 µM | > 100 µM | > 100 µM | > 100 µM | > 100 µM
CCn1c2ccccc2c2ccc3c(c21)C(=O)C=CC3=O |  | > 100 µM | 30 µM | 44 µM |  | 27.7 µM | 44.1 µM |  |  | 32.8 µM | 4.52 µM | 14.9 µM | 
COc1ccc2c(c1)C(=O)C1CC(=O)CCC21 (stereo not drawn) | > 100 µM | > 100 µM | > 100 µM | > 100 µM | > 100 µM | > 100 µM | > 100 µM |  | > 100 µM | > 100 µM | > 100 µM | > 100 µM | > 100 µM
Cc1[nH]c2ccccc2c1C(=O)CC1(O)C(=O)Nc2c(Cl)cc(Cl)cc21 (stereo not drawn) | 72.5 µM | 53.8 µM | > 100 µM | 61.7 µM | 52 µM | 31.5 µM | 52.1 µM | 39.2 µM |  | 42.7 µM | 32.9 µM | 53.9 µM | 54.8 µM
CC(=O)NC(CCCNC(=O)N(CCCl)N=O)C(=O)NCc1ccccc1 (stereo not drawn) |  | > 100 µM | > 100 µM | 69.6 µM | > 100 µM | > 100 µM |  | > 100 µM | > 100 µM | > 100 µM | > 100 µM | > 100 µM | > 100 µM
O=C1OC(Cc2ccccc2)(N2CCCC2=O)C1c1ccccc1 (stereo not drawn) |  | > 100 µM | > 100 µM |  | > 100 µM | > 100 µM | > 100 µM |  | > 100 µM | > 100 µM | > 100 µM | > 100 µM | > 100 µM
CC(C)(C)OC(=O)NC(Cc1ccc(O)cc1)C(=O)N1CCCC1C(=O)O (stereo not drawn) (Boc-Tyr-Pro-OH; configuration not given here) | > 100 µM | > 100 µM | > 100 µM | > 100 µM | > 100 µM | > 100 µM | > 100 µM | > 100 µM | > 100 µM | > 100 µM | > 100 µM | > 100 µM | > 100 µM
COc1cccc(NC(=O)CSc2nnc(-c3ccc(NC(C)=O)cc3)o2)c1 | > 100 µM | > 100 µM | > 100 µM |  | > 100 µM | > 100 µM | > 100 µM | > 100 µM | > 100 µM | > 100 µM | > 100 µM | > 100 µM | > 100 µM
CN(N=O)C(=O)ON1C(=O)CCC1=O | > 100 µM | > 100 µM | > 100 µM | > 100 µM | > 100 µM | > 100 µM | > 100 µM |  | > 100 µM | > 100 µM | > 100 µM | > 100 µM | 
Clc1ccc(Nc2nc3ccccc3nc2-c2cccs2)cc1Cl |  | > 100 µM | > 100 µM | > 100 µM | > 100 µM | > 100 µM | > 100 µM | 89.2 µM | > 100 µM | > 100 µM |  |  | > 100 µM
C/C=C1\CN2CCc3c([nH]c4ccccc34)C2CC1C(=O)OC (stereo not drawn) | > 322 µM | > 322 µM | > 322 µM | > 322 µM | > 322 µM | > 322 µM | > 322 µM | > 322 µM | > 322 µM | > 322 µM | > 322 µM |  | > 322 µM
COc1cccc(OC)c1C(=O)OCc1ccccc1 |  | > 100 µM | > 100 µM | > 100 µM | > 100 µM | > 100 µM |  | > 100 µM | > 100 µM | > 100 µM | > 100 µM | > 100 µM | > 100 µM
CC1(C)OC(=O)C(C#N)=C1/C=C/c1coc2ccc(Cl)cc2c1=O | 40.5 µM | > 100 µM |  |  | > 100 µM | > 100 µM | > 100 µM |  | 89.8 µM | 92.6 µM | > 100 µM | > 100 µM | > 100 µM
CC(=O)CN(Cc1cc(C)c2c(c1)c1ccccc1n2Cc1ccccc1)S(=O)(=O)c1ccc(C)cc1 |  | > 100 µM | > 100 µM | > 100 µM | > 100 µM | > 100 µM |  |  | > 100 µM | > 100 µM | > 100 µM | > 100 µM | > 100 µM
CCCP1(=O)C=C(C)C(=C(Cl)Cl)C(C)=C1 (stereo not drawn) |  |  | > 100 µM | > 100 µM | > 100 µM | > 100 µM | > 100 µM | > 100 µM | > 100 µM |  | 36.5 µM | > 100 µM | 77.4 µM
COC(=O)c1onc(-c2c(OC)cc(OC)cc2OC)c1C(=O)OC | > 100 µM | > 100 µM | > 100 µM |  | > 100 µM | > 100 µM | > 100 µM | > 100 µM | > 100 µM | > 100 µM | > 100 µM | > 100 µM | > 100 µM
c1ccc2c(c1)C1CCCCCC21N1CCOCC1 (stereo not drawn) | > 100 µM |  | > 100 µM | > 100 µM | > 100 µM | > 100 µM | > 100 µM | > 100 µM | > 100 µM | > 100 µM | > 100 µM | > 100 µM | 
